According to patent publication US10377753B2, “Substituted 4-azaindoles and their use as GluN2B receptor modulators” (Janssen Pharmaceutica NV, priority 2015, dated 2019):

Target: cloned human NR1/NR2B ion channels (Homo sapiens (Human), UniProt Q05586+Q13224)
Assay: HNR2BC: effects of test articles on cloned human NR1/NR2B ion channels expressed in mammalian cells (FLIPR calcium flux)
Format: cell-based
Conditions: cloned human NR1/NR2B, Table 5
Procedure: HNR2BC: Effects of Test Articles on Cloned Human NR1/NR2B Ion Channels Expressed in Mammalian Cells
NMDA receptors are ion channels that are highly permeable to Ca^2+ ions, rendering it possible to monitor NMDA receptor function using cell-based calcium flux assay. In this assay, co-agonists glutamate and glycine are added to cells heterologously expressing human GluN1/GluN2B NMDA receptors to initiate cellular Ca^2+ influx. The time course of the changes in intracellular calcium is measured using a fluorescent dye and a FLIPR (Fluorometric Imaging Plate Reader) device.
Twenty four hours before measurements, the expression of the NMDA receptors in the stable cell line is induced with Tet-On inducible system in the presence of a non-selective NMDA receptor blocker. On the day of the experiment, cell culture media is carefully washed and the cells are loaded with Calcium 5 Dye Kit (Molecular Devices) in dye loading buffer containing 137 mM NaCl, 4 mM KCl, 2 mM CaCl2, 0.5 mM MgCl2, 10 mM HEPES and 5 mM D-glucose; pH 7.4. After 1 h incubation at the room temperature, the dye is washed away with the assay buffer (137 mM NaCl, 4 mM KCl, 2 mM CaCl2, 0.01 mM EDTA, 10 mM HEPES and 5 mM D-glucose; pH 7.4) In the FLIPR TETRA reader, various concentrations of the test compounds are added to the cells for 5 min while fluorescence is monitored to detect potential agonist activity. Next, co-agonists, glutamate and glycine are added for another 5 minutes. The concentration of glutamate corresponding to ˜EC80 is used to maximize the assay's signal window and ability to detect NMDA receptor antagonists and negative allosteric modulators. A saturating concentration (10 μM) of glycine is also present in the assay. […] The fluorescent signal in the presence of test compounds is quantified and normalized to the signal defined by the appropriate control wells.

cloned human NR1/NR2B ion channels, sequence (Q13224 27-1484, other chains not shown): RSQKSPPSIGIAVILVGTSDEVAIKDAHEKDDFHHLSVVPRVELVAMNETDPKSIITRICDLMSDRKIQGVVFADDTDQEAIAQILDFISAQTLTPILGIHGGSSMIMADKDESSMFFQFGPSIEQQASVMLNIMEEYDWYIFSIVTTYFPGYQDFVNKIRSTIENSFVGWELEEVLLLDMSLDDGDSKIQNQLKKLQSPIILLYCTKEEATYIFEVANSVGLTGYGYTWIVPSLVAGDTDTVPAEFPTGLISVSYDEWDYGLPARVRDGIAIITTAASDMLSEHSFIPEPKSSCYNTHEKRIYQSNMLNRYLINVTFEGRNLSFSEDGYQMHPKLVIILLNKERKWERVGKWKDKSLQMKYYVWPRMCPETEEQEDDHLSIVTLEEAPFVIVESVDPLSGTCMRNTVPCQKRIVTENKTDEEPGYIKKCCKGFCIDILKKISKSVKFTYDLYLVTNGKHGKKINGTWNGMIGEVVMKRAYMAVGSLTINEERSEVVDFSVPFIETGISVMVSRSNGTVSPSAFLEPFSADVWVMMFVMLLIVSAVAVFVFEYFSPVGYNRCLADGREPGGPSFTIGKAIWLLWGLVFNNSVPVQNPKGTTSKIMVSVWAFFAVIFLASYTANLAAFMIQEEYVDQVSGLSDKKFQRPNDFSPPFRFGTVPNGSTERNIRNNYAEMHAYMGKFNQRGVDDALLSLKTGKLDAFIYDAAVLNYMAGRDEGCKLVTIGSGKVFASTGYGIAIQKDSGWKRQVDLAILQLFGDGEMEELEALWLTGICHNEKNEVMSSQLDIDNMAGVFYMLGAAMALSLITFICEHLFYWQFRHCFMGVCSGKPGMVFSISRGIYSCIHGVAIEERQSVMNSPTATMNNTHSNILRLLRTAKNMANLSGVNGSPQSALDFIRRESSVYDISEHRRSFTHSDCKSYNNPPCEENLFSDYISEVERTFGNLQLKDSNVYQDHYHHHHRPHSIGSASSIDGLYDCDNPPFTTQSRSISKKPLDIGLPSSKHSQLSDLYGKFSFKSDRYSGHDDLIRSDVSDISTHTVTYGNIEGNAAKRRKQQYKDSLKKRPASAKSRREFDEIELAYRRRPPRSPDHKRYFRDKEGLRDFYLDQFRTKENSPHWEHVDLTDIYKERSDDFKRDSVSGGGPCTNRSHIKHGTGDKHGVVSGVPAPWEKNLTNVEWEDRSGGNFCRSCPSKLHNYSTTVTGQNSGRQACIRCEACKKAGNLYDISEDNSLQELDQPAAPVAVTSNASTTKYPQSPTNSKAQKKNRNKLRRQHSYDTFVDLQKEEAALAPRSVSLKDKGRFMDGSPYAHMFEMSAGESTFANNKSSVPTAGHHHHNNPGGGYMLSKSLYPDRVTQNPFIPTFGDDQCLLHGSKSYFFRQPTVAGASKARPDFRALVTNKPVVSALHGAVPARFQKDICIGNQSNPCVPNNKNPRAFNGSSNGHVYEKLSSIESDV

SMILES | IC50 | pIC50
O=C(Cn1cc(Br)c2ncc(-c3ccc(F)cc3)cc21)N1CCOCC1 [Example 20, 2-[3-Bromo-6-(4-fluorophenyl)pyrrolo[3,2-b]pyridin-1-yl]-1-morpholino-ethanone] | 50.1 nM | 
Cc1cccc(-c2cnc3c(Br)cn(CC(=O)NC4CC4)c3c2)c1 [Example 21, 2-[3-Bromo-6-(m-tolyl)pyrrolo[3,2-b]pyridin-1-yl]-N-cyclopropyl-acetamide] | 39.8 nM | 
Cc1cccc(-c2cnc3c(Br)cn(CC(=O)N4CCC4)c3c2)c1 [Example 22, 1-(Azetidin-1-yl)-2-[3-bromo-6-(m-tolyl)pyrrolo[3,2-b]pyridin-1-yl]ethanone] | 25.1 nM | 
Cc1cccc(-c2cnc3c(Br)cn(CC(=O)N4CCCC4)c3c2)c1 [Example 23, 2-[3-Bromo-6-(m-tolyl)pyrrolo[3,2-b]pyridin-1-yl]-1-pyrrolidin-1-yl-ethanone] | 50.1 nM | 
Cc1cccc(-c2cnc3c(Br)cn(CC(=O)N4CCOCC4)c3c2)c1 [Example 24, 2-[3-Bromo-6-(m-tolyl)pyrrolo[3,2-b]pyridin-1-yl]-1-morpholino-ethanone] | 100 nM | 
Cc1cc(-c2cnc3c(Cl)cn(CC(=O)N4CC(F)(F)C4)c3c2)ccc1F [Example 25, 2-[3-Chloro-6-(4-fluoro-3-methyl-phenyl)pyrrolo[3,2-b]pyridin-1-yl]-1-(3,3-difluoroazetidin-1-yl)ethanone] | 79.4 nM | 
Cc1cc(-c2cnc3c(Cl)cn(CC(=O)N4CC(F)C4)c3c2)ccc1F [Example 26, 2-[3-Chloro-6-(4-fluoro-3-methyl-phenyl)pyrrolo[3,2-b]pyridin-1-yl]-1-(3-fluoroazetidin-1-yl)ethanone] | 39.8 nM | 
Cc1cn(CC(=O)N2CCCC2)c2cc(-c3ccc(F)cc3)cnc12 [Example 27, 2-[6-(4-Fluorophenyl)-3-methyl-pyrrolo[3,2-b]pyridin-1-yl]-1-pyrrolidin-1-yl-ethanone] | 50.1 nM | 
Cc1cn(CC(=O)N2CCOCC2)c2cc(-c3ccc(F)cc3)cnc12 [Example 28, 2-[6-(4-Fluorophenyl)-3-methyl-pyrrolo[3,2-b]pyridin-1-yl]-1-morpholino-ethanone] | 200 nM | 
O=C(Cn1cc(Cl)c2ncc(-c3ccc(F)c(F)c3)cc21)N1CCC1 [Example 29, 1-(Azetidin-1-yl)-2-[3-chloro-6-(3,4-difluorophenyl)pyrrolo[3,2-b]pyridin-1-yl]ethanone] | 20 nM | 
O=C(Cn1cc(Cl)c2ncc(-c3ccc(F)c(F)c3)cc21)N1CC(F)C1 [Example 30, 2-[3-Chloro-6-(3,4-difluorophenyl)pyrrolo[3,2-b]pyridin-1-yl]-1-(3-fluoroazetidin-1-yl)ethanone] | 20 nM | 
Cc1cc2ncc(-c3ccc(F)cc3)cc2n1CC(=O)N1CCOCC1 [Example 31, 2-[6-(4-Fluorophenyl)-2-methyl-pyrrolo[3,2-b]pyridin-1-yl]-1-morpholino-ethanone] | 3160 nM | 
Cc1cn(CC(=O)NC2CC2)c2cc(-c3ccc(F)cc3)cnc12 [Example 32, N-Cyclopropyl-2-[6-(4-fluorophenyl)-3-methyl-pyrrolo[3,2-b]pyridin-1-yl]acetamide] | 398 nM | 
Cc1cn(CC(=O)N2CCC2)c2cc(-c3ccc(F)cc3)cnc12 [Example 33, 1-(Azetidin-1-yl)-2-[6-(4-fluorophenyl)-3-methyl-pyrrolo[3,2-b]pyridin-1-yl]ethanone] | 63.1 nM | 
O=C(Cn1cc(Cl)c2ncc(-c3ccc(F)c(F)c3)cc21)N1CC(F)(F)C1 [Example 34, 2-[3-Chloro-6-(3,4-difluorophenyl)pyrrolo[3,2-b]pyridin-1-yl]-1-(3,3-difluoroazetidin-1-yl)ethanone] |  | 7.8
O=C(Cn1cc(Cl)c2ncc(-c3ccc(F)c(C(F)(F)F)c3)cc21)N1CC(F)C1 [Example 35, 2-[3-Chloro-6-[4-fluoro-3-(trifluoromethyl)phenyl]pyrrolo[3,2-b]pyridin-1-yl]-1-(3-fluoroazetidin-1-yl)ethanone] | 200 nM | 
O=C(Cn1cc(Cl)c2ncc(-c3cccc(C(F)(F)F)c3)cc21)N1CC(F)(F)C1 [Example 36, 2-[3-Chloro-6-[3-(trifluoromethyl)phenyl]pyrrolo[3,2-b]pyridin-1-yl]-1-(3,3-difluoroazetidin-1-yl)ethanone] | 100 nM | 
Cc1cc2ncc(-c3ccc(F)cc3)cc2n1CC(=O)N1CCCC1 [Example 37, 2-[6-(4-Fluorophenyl)-2-methyl-pyrrolo[3,2-b]pyridin-1-yl]-1-pyrrolidin-1-yl-ethanone] | 1000 nM | 

SMILES | IC50 | pIC50
Cc1cc2ncc(-c3ccc(F)cc3)cc2n1CC(=O)NC1CC1 [Example 38, N-Cyclopropyl-2-[6-(4-fluorophenyl)-2-methyl-pyrrolo[3,2-b]pyridin-1-yl]acetamide] | 5010 nM | 
O=C(Cn1cc(Cl)c2ncc(-c3cc(F)c(F)c(F)c3)cc21)N1CC(F)C1 [Example 39, 2-[3-Chloro-6-(3,4,5-trifluorophenyl)pyrrolo[3,2-b]pyridin-1-yl]-1-(3-fluoroazetidin-1-yl)ethanone] | 31.6 nM | 
O=C(Cn1cc(Cl)c2ncc(-c3ccc(F)c(C(F)(F)F)c3)cc21)N1CC(F)(F)C1 [Example 40, 2-[3-Chloro-6-[4-fluoro-3-(trifluoromethyl)phenyl]pyrrolo[3,2-b]pyridin-1-yl]-1-(3,3-difluoroazetidin-1-yl)ethanone] | 501 nM | 
Cc1cccc(-c2cnc3cc(C)n(CC(=O)N4CCC4)c3c2)c1 [Example 41, 1-(Azetidin-1-yl)-2-[2-methyl-6-(m-tolyl)pyrrolo[3,2-b]pyridin-1-yl]ethanone] | 25.1 nM | 
Cc1cc2ncc(-c3ccccc3)cc2n1CC(=O)N1CCCC1 [Example 42, 2-(2-Methyl-6-phenyl-pyrrolo[3,2-b]pyridin-1-yl)-1-pyrrolidin-1-yl-ethanone] | 2510 nM | 
Cc1cccc(-c2cnc3cc(C)n(CC(=O)N4CCCC4)c3c2)c1 [Example 44, 2-[2-Methyl-6-(m-tolyl)pyrrolo[3,2-b]pyridin-1-yl]-1-pyrrolidin-1-yl-ethanone] | 200 nM | 
Cc1cccc(-c2cnc3cc(C)n(CC(=O)N4CCOCC4)c3c2)c1 [Example 45, 2-[2-Methyl-6-(m-tolyl)pyrrolo[3,2-b]pyridin-1-yl]-1-morpholino-ethanone] | 501 nM | 
Cc1cc2ncc(-c3ccc(F)cc3)cc2n1CC(=O)N1CCC1 [Example 46, 1-(Azetidin-1-yl)-2-[6-(4-fluorophenyl)-2-methyl-pyrrolo[3,2-b]pyridin-1-yl]ethanone] | 501 nM | 
Cc1cc2ncc(-c3ccccc3)cc2n1CC(=O)N1CCC1 [Example 47, 1-(Azetidin-1-yl)-2-(2-methyl-6-phenyl-pyrrolo[3,2-b]pyridin-1-yl)ethanone] | 79.4 nM | 
O=C(Cn1cc(Cl)c2ncc(-c3cccc(C(F)(F)F)c3)cc21)N1CC(F)C1 [Example 48, 2-[3-Chloro-6-[3-(trifluoromethyl)phenyl]pyrrolo[3,2-b]pyridin-1-yl]-1-(3-fluoroazetidin-1-yl)ethanone] | 631 nM | 
O=C(Cn1cc(Cl)c2ncc(-c3cc(F)c(F)c(F)c3)cc21)N1CC(F)(F)C1 [Example 49, 2-[3-Chloro-6-(3,4,5-trifluorophenyl)pyrrolo[3,2-b]pyridin-1-yl]-1-(3,3-difluoroazetidin-1-yl)ethanone] | 200 nM | 
O=C(Cn1cc(Cl)c2ncc(-c3ccc(F)c(F)c3F)cc21)N1CC(F)(F)C1 [Example 50, 2-[3-Chloro-6-(2,3,4-trifluorophenyl)pyrrolo[3,2-b]pyridin-1-yl]-1-(3,3-difluoroazetidin-1-yl)ethanone] | 39.8 nM | 
Cc1cccc(-c2cnc3cc(C)n(CC(=O)NC4CC4)c3c2)c1 [Example 51, N-Cyclopropyl-2-[2-methyl-6-(m-tolyl)pyrrolo[3,2-b]pyridin-1-yl]acetamide] | 63.1 nM | 
Cc1cc2ncc(-c3ccccc3)cc2n1CC(=O)N1CCOCC1 [Example 52, 2-(2-Methyl-6-phenyl-pyrrolo[3,2-b]pyridin-1-yl)-1-morpholino-ethanone] | 1260 nM | 
Cc1cccc(-c2cnc3c(Cl)cn(CC(=O)N4CC(F)(F)C4)c3c2)c1 [Example 53, 2-[3-Chloro-6-(m-tolyl)pyrrolo[3,2-b]pyridin-1-yl]-1-(3,3-difluoroazetidin-1-yl)ethanone] | 5010 nM | 
Cc1cccc(-c2cnc3c(Cl)cn(CC(=O)N4CC(F)C4)c3c2)c1 [Example 54, 2-[3-Chloro-6-(m-tolyl)pyrrolo[3,2-b]pyridin-1-yl]-1-(3-fluoroazetidin-1-yl)ethanone] | 63.1 nM | 
O=C(Cn1cc(Cl)c2ncc(-c3ccccc3)cc21)N1CC(F)(F)C1 [Example 55, 2-(3-Chloro-6-phenyl-pyrrolo[3,2-b]pyridin-1-yl)-1-(3,3-difluoroazetidin-1-yl)ethanone] | 31.6 nM | 
O=C(Cn1cc(Cl)c2ncc(-c3ccccc3)cc21)N1CC(F)C1 [Example 56, 2-(3-Chloro-6-phenyl-pyrrolo[3,2-b]pyridin-1-yl)-1-(3-fluoroazetidin-1-yl)ethanone] | 50.1 nM | 
